# Experimental data from article PMC6317416, “Thermophilic phosphoribosyltransferases Thermus thermophilus HB27 in nucleotide synthesis” (Beilstein Journal of Organic Chemistry, 2018).
# System: T1, TthHPRT (hypoxanthine phosphoribosyltransferase Thermus thermophilus HB27)
# T1 construct: gene hpt; C-terminal His-tag (pET-23a+), E. coli C3030
# Experiment: HPLC product quantification, initial rate, nonlinear regression
# Type: biochemical
# Settings: 5 mM MgCl2, 20 mM Tris-HCl pH 8.0, 70 °C
# Text: HPLC product quantification, initial rate, nonlinear regression on TthHPRT (hypoxanthine phosphoribosyltransferase Thermus thermophilus HB27)
Km (0.50 mM hypoxanthine) [µM],Structure (SMILES),Km (1 mM PRPP) [µM]
,O=c1[nH]cnc2nc[nH]c12 [hypoxanthine],13 ± 4
220 ± 60,O=P(O)(O)OC[C@H]1O[C@H](OP(=O)(O)OP(=O)(O)O)[C@H](O)[C@@H]1O [PRPP],
,Nc1nc2[nH]cnc2c(=O)[nH]1 [guanine],28 ± 9
